Values joined by “and” are separate entries in the source; they are usually repeats but may differ in a detail not shown here. Equal entries are not always repeated.

The target of this test is Replicase polyprotein 1ab (Severe acute respiratory syndrome coronavirus 2, UniProt P0DTD1). In words: Functional biochemical assay to identify treatments for viral infectious disease that targets SARS-COV-2 nsp3 macrodomain, whereby the mechanism of action displaces an ADP-Ribose modified peptide from the binding site. Utilizing a time-resolved fluorescence method to measure binding by reading the emitted fluorescence intensity in two wavelengths.
`c1nc(-c2ccc3c(c2)OCO3)c2cc[nH]c2n1`: the IC50 is greater than 99.5 µM.

In turn, `CCOC(=O)C1=C(Nc2cc(C)cc(C)c2)OCC1=O` came in with a concentration for half-maximal inhibition (IC50) greater than 99.5 µM.

`Cc1ccc2c(NC(=O)c3ccc(NC(=O)NC4CC4)cc3)c(C(=O)O)sc2n1`: the concentration for half-maximal inhibition (IC50) is greater than 99.5 µM.

Take `Cn1c(C(=O)O)c(NC(=O)c2ccc(NC(=O)NC3CC3)cc2)c2cccnc21`: the half-maximal inhibitory concentration (IC50) is greater than 99.5 µM.

For `COc1ccc([C@@H]2CCN(c3ncnc4[nH]ccc34)C2)cc1`, the IC50 was greater than 99.5 µM.

For `c1nc(Nc2ccc3c(c2)OCO3)c2cc[nH]c2n1`, the 50% inhibitory concentration (IC50) is greater than 99.5 µM.

For the compound `CC(C)[C@@H](Nc1ncnc2[nH]c3cc(F)ccc3c12)c1ccc2c(c1)OCCO2`, the concentration for half-maximal inhibition (IC50) is 8.54 µM and 10 µM.

`O=C(O)C[C@@H](NC(=O)c1ncnc2[nH]ccc12)c1ccc(NCC2C[C@@H](O)[C@@H](O)C2)cc1` (stereo partly specified): the half-inhibitory concentration (IC50) was 25 µM and 27.5 µM.

For `Cc1[nH]nc2ncc(C(=O)N[C@@H](c3ccc4c(c3)OCCO4)C(C)C)cc12`, the IC50 was greater than 99.5 µM.

The compound `Cc1nnc(N[C@@H](c2ccc3c(c2)OCCO3)C(C)C)c2ccccc12` registered a half-maximal inhibitory concentration (IC50) greater than 99.5 µM.

For the compound `CC(C)[C@@H](Nc1ncnc2c1cnn2C)c1ccc2c(c1)OCCO2`, the half-maximal inhibitory concentration (IC50) was greater than 99.5 µM.

`CC(C)[C@@H]1C[C@@H](Nc2ncnc3[nH]ccc23)CCO1` displayed a concentration for half-maximal inhibition (IC50) greater than 99.5 µM.

As for `O=C(O)C[C@@H](NC(=O)c1ncnc2[nH]ccc12)c1ccc(NCC2=NO[C@@H]3COC[C@H]23)cc1`, the IC50 was 7.29 µM and 8.33 µM.

Take `CC(=O)Nc1ccc([C@@H](CC(=O)O)NC(=O)c2ncnc3[nH]ccc23)cc1`: the half-inhibitory concentration (IC50) is 14.5 µM and 14.6 µM.

`Cc1[nH]c2ncnc(NC(=O)c3ccncc3)c2c1C` displayed a 50% inhibitory concentration (IC50) greater than 99.5 µM.

Consider `O=C(Nc1ccc(C(=O)Nc2c(C(=O)O)sc3ccncc23)cc1)NC1CC1`, for which the 50% inhibitory concentration (IC50) was greater than 99.5 µM.

For `Cc1[nH]c2ncnc(NC(=O)c3cncnc3)c2c1C`, the IC50 is greater than 99.5 µM.

Consider `COC(=O)C[C@@H](NC(=O)c1ncnc2[nH]ccc12)c1ccc(Br)cc1`, for which the 50% inhibitory concentration (IC50) is greater than 99.5 µM.

With `Cc1ncc(C(=O)Nc2ncnc3[nH]c(C)c(C)c23)cn1`, the IC50 is greater than 99.5 µM.

With `Cc1nc2nc[nH]c(NC(=O)c3ccc(NC(=O)NC4CC4)nc3)c-2c1C`, the IC50 is greater than 99.5 µM.

As for `O=C(O)C[C@@H](NC(=O)c1ncnc2[nH]ccc12)c1ccc(Nc2nnc(C3CC3)o2)cc1`, the IC50 is 3.78 µM and 4.55 µM.

`COc1ccc(Nc2ncnc3[nH]ccc23)cc1OC`: the IC50 was greater than 99.5 µM.

`CC(C)Cc1ccc2c(NC(=O)c3ccc(NC(=O)NC4CC4)cc3)c(C(=O)O)sc2n1` came in with a half-inhibitory concentration (IC50) greater than 99.5 µM.

In turn, `Cc1[nH]c2ncnc(NC(=O)c3ccc(C(F)(F)F)nc3)c2c1C` returned an IC50 greater than 99.5 µM.

`O=C(Nc1cccc2c(C(=O)Nc3cc4c(cc3C(=O)O)OCCO4)c[nH]c12)NC1CC1` had an IC50 greater than 99.5 µM.

On to `CS(=O)(=O)Nc1ccc([C@@H](CC(=O)O)NC(=O)c2ncnc3[nH]ccc23)cc1`, for which the half-inhibitory concentration (IC50) was 12.1 µM and 10 µM.

In the case of `CC(C)[C@@H](Nc1ncnc2c1ccn2C)c1ccc2c(c1)OCCO2`, the IC50 is greater than 99.5 µM.

`COC[C@@H]1C[C@@H]1CNc1ccc([C@@H](CC(=O)O)NC(=O)c2ncnc3[nH]ccc23)cc1`: the half-maximal inhibitory concentration (IC50) is 44.5 µM and 43.9 µM.

Consider `c1nc(N[C@@H](c2ccc3c(c2)OCCO3)C2CC2)c2cn[nH]c2n1`, for which the IC50 is 17.7 µM and 19.9 µM.

For `Cc1[nH]c2ncnc(NC(=O)[C@@H]3Cc4ccccc4CO3)c2c1C`, the half-inhibitory concentration (IC50) was greater than 99.5 µM.

Turning to `CNS(=O)(=O)C[C@@H](NC(=O)c1ncnc2[nH]ccc12)c1ccc(Br)cc1`, the IC50 is greater than 99.5 µM.

Regarding `O=C(N[C@@H](Cc1nn[nH]n1)c1ccc(Br)cc1)c1ncnc2[nH]ccc12`, the IC50 is 1.92 µM and 2.11 µM.

In the case of `CC(C)[C@@H](NC(=O)c1cnn(-c2ccccc2)n1)c1ccc2c(c1)OCCO2`, the IC50 was greater than 99.5 µM.

For the compound `CC(C)[C@@H](Nc1nc(C(F)F)nc2ccccc12)c1ccc2c(c1)OCCO2`, the IC50 is greater than 99.5 µM.

For the compound `Cc1[nH]c2ncnc(NC(=O)[C@@H](CC(F)F)C3CCC3)c2c1C`, the IC50 was 8.19 µM and 8.22 µM.

For the compound `c1nc(NCc2ccc3c(c2)OCCO3)c2cc[nH]c2n1`, the IC50 was 80.3 µM and 93.9 µM.

Turning to `Cn1c(C(=O)O)c(NC(=O)c2ccc(NC(=O)NC3CC3)cc2)c2ccccc21`, the IC50 is greater than 99.5 µM.

As for `O=C(Nc1ccc(C(=O)Nc2c(C(=O)O)sc3ncccc23)cc1)NC1CC1`, the IC50 is greater than 99.5 µM.

Turning to `COc1ccc([C@@H](Nc2ncnc3[nH]ccc23)C(C)C)cc1`, the 50% inhibitory concentration (IC50) was 6.36 µM and 8.21 µM.

Regarding `O=C(Nc1cccc2c(C(=O)Nc3cc4c(cc3CO)OCCO4)c[nH]c12)NC1CC1`, the IC50 was greater than 99.5 µM.

As to `O=C(O)C[C@@H](NC(=O)c1ccc(NC(=O)NC2CC2)cc1)c1cccc(O)c1`, the half-maximal inhibitory concentration (IC50) was 9.04 µM and 8.76 µM.

In the case of `C[C@@H]1Oc2ccc(Nc3ncnc4[nH]ccc34)cc2NC1=O`, the concentration for half-maximal inhibition (IC50) is greater than 99.5 µM.

`Cc1[nH]c2ncnc(NC(=O)c3cncc(Cl)n3)c2c1C`: the IC50 was greater than 99.5 µM.

`O=C(O)C[C@@H](NC(=O)c1c[nH]c2ncncc12)c1ccc(NCC2=NO[C@@H]3COC[C@H]23)cc1` gave a half-inhibitory concentration (IC50) greater than 99.5 µM.

Compound `O=C(Nc1cccc2c(C(=O)N[C@@H](CO)c3ccc4c(c3)OCCO4)c[nH]c12)NC1CC1` showed an IC50 greater than 99.5 µM.

Consider `Cc1nnc(Nc2ccc([C@@H](CC(=O)O)NC(=O)c3ncnc4[nH]ccc34)cc2)o1`, for which the IC50 was 12.2 µM and 10.1 µM.

With `CC(C)[C@@H](NCc1ncc[nH]1)c1ccc2c(c1)OCCO2`, the half-inhibitory concentration (IC50) is greater than 99.5 µM.

`CC(C)[C@@H](NCc1ccc(-n2cccn2)cc1)c1ccc2c(c1)OCCO2` displayed an IC50 greater than 99.5 µM.

With `O=C(Nc1ccc(C(=O)Nc2c(C(=O)O)[nH]c3ccccc23)cc1)NC1CC1`, the IC50 is greater than 99.5 µM.

Compound `CC(C)[C@@H](Nc1ncnc2ncccc12)c1ccc2c(c1)OCCO2` yielded an IC50 greater than 99.5 µM.

Turning to `CC(C)[C@@H](Nc1ncnc2ccccc12)c1ccc2c(c1)OCCO2`, the half-inhibitory concentration (IC50) was 58.3 µM and 59.9 µM.

For `Cn1ncc2c(N[C@@H](c3ccc4c(c3)OCCO4)C3CC3)ncnc21`, the IC50 is greater than 99.5 µM.

In turn, `c1nc(N2CCC[C@@H](Nc3ccc4c(c3)OCCO4)C2)c2cc[nH]c2n1` returned an IC50 greater than 99.5 µM.

For `CCc1coc(Nc2ccc([C@@H](CC(=O)O)NC(=O)c3ncnc4[nH]ccc34)cc2)n1`, the half-inhibitory concentration (IC50) was 13.9 µM and 15.5 µM.

For the compound `O=C(Nc1ccc2c(C(=O)N[C@@H]3c4ccccc4C[C@@H]3C(=O)O)cnn2c1)NC1CC1`, the IC50 was 63.8 µM and 49.3 µM.

Take `c1ccc2c(c1)OCC[C@@H]2Nc1ncnc2[nH]ccc12`: the IC50 was greater than 99.5 µM.

Consider `O=C(Nc1cccc2c(C(=O)Nc3ccccc3C(=O)O)c[nH]c12)NC1CC1`, for which the IC50 is 19.9 µM and 20 µM.

For `CC(C)[C@@H](NC(=O)c1ccccn1)c1ccc2c(c1)OCCO2`, the IC50 was greater than 99.5 µM.

As to `CC(C)[C@@H](NC(=O)c1ccnc(-n2ccnc2)c1)c1ccc2c(c1)OCCO2`, the IC50 was greater than 99.5 µM.

`NC(=O)[C@@H](NC(=O)c1ncnc2[nH]ccc12)c1ccc(Br)cc1` displayed a half-inhibitory concentration (IC50) greater than 99.5 µM.

For the compound `O=C(O)C[C@@H](NC(=O)c1ncnc2[nH]ccc12)c1ccc(Nc2nnco2)cc1`, the half-inhibitory concentration (IC50) is 6.57 µM and 5.48 µM.

`CC(C)[C@@H](NCc1cccc2[nH]ccc12)c1ccc2c(c1)OCCO2` gave an IC50 greater than 99.5 µM.

Compound `Cc1[nH]c2ncnc(C(=O)Nc3ccnc(Cl)c3)c2c1C` gave an IC50 greater than 99.5 µM.

The compound `c1ccc2c(N[C@@H](c3ccc4c(c3)OCCO4)C3CC3)ncnc2c1` gave an IC50 greater than 99.5 µM.

`N#CC[C@@H](NC(=O)c1ncnc2[nH]ccc12)c1ccc(Br)cc1`: the IC50 was greater than 99.5 µM.

As for `O=C(O)C[C@@H](NC(=O)c1ncnc2[nH]ccc12)c1ccc(NCc2ccno2)cc1`, the IC50 was 11.3 µM and 13.1 µM.
